e = 2'-O-(2-methoxyethyl) (MOE); d = 2'-deoxy (DNA)
Test system: IL-6 mRNA
Experiment: IL-6 mRNA in LPS-activated primary murine macrophages
Format: cell-based, mouse
Conditions: average of 3 treatments
Method in brief: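 Thioglycollate-elicited peritoneal macrophages from female C57Bl/6 mice, transfected with miRNA-targeting oligomeric compounds via FuGENE 6 (1 μL per 100 nM compound) for ~24–28 h at 37 °C, optionally primed 4 h with 100 ng/mL IFN-gamma, then stimulated 24 h with 100 ng/mL LPS. IL-6 mRNA quantified by real-time PCR.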

Substance: 129690 (antisense TTAGAATACGTCGCGTTATG; sugars from the 5' end e5 d10 e5, all phosphorothioate, methylation of C not given here) [compound 129690]
- IL-6 mRNA expression, % UTC (75 nM, +IFN): 92 % UTC
- IL-6 mRNA expression, % UTC (75 nM, −IFN): 98 % UTC
- IL-6 mRNA expression, % UTC (150 nM, +IFN): 86 % UTC
- IL-6 mRNA expression, % UTC (150 nM, −IFN): 99 % UTC
- IL-6 mRNA expression, % UTC (300 nM, +IFN): 94 % UTC
- IL-6 mRNA expression, % UTC (300 nM, −IFN): 109 % UTC
- IL-6 mRNA expression, % UTC (600 nM, +IFN): 203 % UTC
- IL-6 mRNA expression, % UTC (600 nM, −IFN): 258 % UTC

Source: patent publication US8178506B2, “Oligomeric compounds and compositions for use in modulation of small non-coding RNAs” (Regulus Therapeutics Inc., priority 2003, dated 2012)
